The target in test [1] is T1, human 5-HT6 receptor (Homo sapiens, UniProt P50406).
T1 construct: expressed in transfected cells; host or cells: HEK293 (G-418 selected)
In words: 5-HT6 receptor intrinsic activity assay (inhibition of 5-HT induced increase in cAMP in HEK293/5-HT6 cells). The format is cell-based. The conditions noted are these: read-out: Antagonist potency at the human 5-HT6 receptor, IC50,corr. The procedure: (1997) Neuropharmacology 36: 713-720). Briefly, HEK293/5-HT6 cells were seeded in polylysine coated 96-well plates at a density of 25,000/well and grown in DMEM (Dulbecco's Modified Eagle Medium) (without phenol-red) containing 5% dialyzed Foetal Bovine Serum for 48 h at 37° C. in a 5% CO2 incubator. The medium was then aspirated and replaced by 0.1 ml assay medium (Hanks Balance Salt Solution containing 20 mM HEPES, 1.5 mM isobutylmethylxanthine and 1 mg/ml bovine serum albumin). After addition of test substances, 50 μl dissolved in assay medium, the cells were incubated for 10 min at 37° C. in a 5% CO2 incubator. The medium was again aspirated and the cAMP content was determined using a radioactive cAMP kit (Amersham Pharmacia Biotech, BIOTRAK RPA559).

For test [2], the target named is T1, human 5-HT6 receptor. The test can be described thus: 5-HT6 receptor binding assay ([3H]-LSD displacement, SPA, membranes of transfected HEK293 cells).
Where [3] appears, read: [3H]LSD 3 nM, HEK293 membranes, read-out: Binding affinity (Ki) at the human 5-HT6 receptor.

From US20060142269A1, “New compounds” (priority 2004, published 2006) come the findings set out here.

Counter-ions that a name gives are not always drawn. Like-named read-outs stand apart in the source and are kept apart here.

T1 sequence (P50406 whole entry): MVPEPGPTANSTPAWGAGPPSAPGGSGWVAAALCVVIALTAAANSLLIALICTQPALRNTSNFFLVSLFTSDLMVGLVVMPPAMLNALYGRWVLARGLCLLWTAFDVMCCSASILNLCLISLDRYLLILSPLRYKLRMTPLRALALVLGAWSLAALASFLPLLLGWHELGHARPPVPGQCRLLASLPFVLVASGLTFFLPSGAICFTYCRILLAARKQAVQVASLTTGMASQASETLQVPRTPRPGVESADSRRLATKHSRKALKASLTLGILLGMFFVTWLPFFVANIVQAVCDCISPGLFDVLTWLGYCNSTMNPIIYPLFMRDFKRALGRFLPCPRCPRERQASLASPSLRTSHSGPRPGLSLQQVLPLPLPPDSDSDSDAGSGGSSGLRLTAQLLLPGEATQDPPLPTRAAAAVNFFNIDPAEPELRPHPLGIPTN

Take `COc1ccc(C)cc1OS(=O)(=O)c1cc(CN2CCCNCC2)c2occc2c1` [Example 18, 2-Methoxy-5-methylphenyl 7-(1,4-diazepan-1-ylmethyl)-1-benzofuran-5-sulfonate trifluoroacetate]: the IC50 at human 5-HT6 receptor [1] worked out at 487 nM.

Regarding `COc1cccc(OS(=O)(=O)c2cc(N3CCN[C@H](C)C3)c3occc3c2)c1OC` [Example 9, 2,3-Dimethoxyphenyl 7-[(3R)-3-methylpiperazin-1-yl]-1-benzofuran-5-sulfonate trifluoroacetate], the IC50 on human 5-HT6 receptor [1] amounted to 49 nM.

`C[C@@H]1CN(Cc2cc(S(=O)(=O)Oc3ccccc3C(N)=O)cc3ccoc23)CCN1` [Example 16, 2-(Aminocarbonyl)phenyl 7-{[(3R)-3-methylpiperazin-1-yl]methyl}-1-benzofuran-5-sulfonate bis(trifluoroacetate)]: the IC50 on human 5-HT6 receptor [1] was 199 nM. In the case of `O=S(=O)(Oc1ccccc1C(F)(F)F)c1cc(N2CCNCC2)c2occc2c1` [Example 3, 2-(Trifluoromethyl)phenyl 7-piperazin-1-yl-1-benzofuran-5-sulfonate, trifluoroacetate], the Ki at human 5-HT6 receptor [2] (setting [3]) came out at 2 nM. For `O=S(=O)(Oc1ccccc1Cl)c1cc(N2CCNCC2)c2occc2c1` [Example 2, 2-Chlorophenyl 7-piperazin-1-yl-1-benzofuran-5-sulfonate, trifluoroacetate], at human 5-HT6 receptor [2] (setting [3]), the Ki stood at 2.3 nM. In addition, the IC50 at human 5-HT6 receptor [1] was found to be 24 nM. `CC[C@@H](CO)NC(=O)[C@@H]1C=C2c3cccc4c3c(cn4C)C[C@H]2N(C)C1` [methysergide]: the Ki on human 5-HT6 receptor [2] amounted to 482 nM. Turning to `COc1ccc(C)cc1OS(=O)(=O)c1cc(CN2CCN(C)CC2)c2occc2c1` [Example 5, 2-Methoxy-5-methylphenyl 7-[(4-methylpiperazin-1-yl)methyl]-1-benzofuran-5-sulfonate bis(trifluoroacetate)], the IC50 at human 5-HT6 receptor [1] worked out at 49 nM. In the case of `COc1ccc(C)cc1OS(=O)(=O)c1cc(N2CCNCC2)c2occc2c1` [Example 1, 2-Methoxy-5-methylphenyl 7-piperazin-1-yl-1-benzofuran-5-sulfonate, trifluoroacetate], the Ki at human 5-HT6 receptor [2] (setting [3]) turned out to be 0.6 nM. `CN1CCN(c2cc(S(=O)(=O)Oc3cccnc3)cc3ccoc23)CC1` [Example 7, Pyridin-3-yl 7-(4-methylpiperazin-1-yl)-1-benzofuran-5-sulfonate trifluoroacetate]: the IC50 on human 5-HT6 receptor [1] was found to be 73 nM. As to `NCCc1c[nH]c2ccc(O)cc12` [Example 5-HT, 5-hydroxytryptamine], the Hill coefficient on human 5-HT6 receptor [2] (over three experiments) is reported as 0.94 (SD 0.09). Regarding `CN1C[C@@H](NS(=O)(=O)N(C)C)C[C@@H]2c3cccc4c3c(cn4C)C[C@H]21` [mesulergide], the Ki on human 5-HT6 receptor [2] (over all average, 5-HT tested against two different membrane preparations, read-out: Ki value, inhibition of [3H]LSD binding (rank order of potency of unlabelled ligands)) is 1970 nM.

By IC50 is commonly meant the concentration that gives 50% inhibition. Broadly, the Ki is a measure of affinity in units of concentration, obtained from inhibition or displacement.
